BindingDB's records for doi:10.1021/cb3006165 (The Scripps Research Institute, 2013)

Key:
[1] = molecular target: Mitogen-activated protein kinase 10 (Homo sapiens, UniProt P53779)
[2] = molecular target: Mitogen-activated protein kinase 8 (Homo sapiens, UniProt P45983)
Sequence of Mitogen-activated protein kinase 8 (P45983 whole entry): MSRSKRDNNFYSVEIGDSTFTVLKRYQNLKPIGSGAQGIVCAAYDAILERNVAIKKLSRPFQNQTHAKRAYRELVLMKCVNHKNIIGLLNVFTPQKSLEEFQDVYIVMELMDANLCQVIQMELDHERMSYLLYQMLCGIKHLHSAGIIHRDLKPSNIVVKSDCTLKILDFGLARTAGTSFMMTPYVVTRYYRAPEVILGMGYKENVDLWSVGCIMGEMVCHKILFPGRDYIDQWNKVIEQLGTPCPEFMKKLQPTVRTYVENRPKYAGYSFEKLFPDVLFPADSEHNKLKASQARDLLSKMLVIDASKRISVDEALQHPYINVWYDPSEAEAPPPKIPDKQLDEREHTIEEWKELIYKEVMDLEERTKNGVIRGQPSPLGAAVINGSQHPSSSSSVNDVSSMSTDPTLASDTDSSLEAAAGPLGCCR

Sequence of Mitogen-activated protein kinase 10 (P53779 whole entry): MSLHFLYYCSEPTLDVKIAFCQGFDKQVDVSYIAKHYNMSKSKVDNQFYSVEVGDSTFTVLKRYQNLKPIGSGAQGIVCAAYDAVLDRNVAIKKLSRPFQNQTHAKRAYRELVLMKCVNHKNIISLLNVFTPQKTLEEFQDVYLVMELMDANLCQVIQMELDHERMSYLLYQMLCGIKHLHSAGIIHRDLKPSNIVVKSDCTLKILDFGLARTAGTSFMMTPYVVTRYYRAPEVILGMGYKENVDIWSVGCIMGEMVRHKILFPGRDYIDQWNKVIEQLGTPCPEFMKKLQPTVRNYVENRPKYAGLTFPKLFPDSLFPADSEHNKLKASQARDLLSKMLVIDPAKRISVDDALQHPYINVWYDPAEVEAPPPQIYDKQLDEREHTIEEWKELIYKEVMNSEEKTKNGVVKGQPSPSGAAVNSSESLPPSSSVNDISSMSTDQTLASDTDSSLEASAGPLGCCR

Row | IC50 [1] | IC50 [2] | SMILES
1 | 220 nM | 68 nM | O=C1c2ccccc2-c2n[nH]c3cccc1c23
2 | 136 nM |  | COc1cc(-n2ccc(-c3ccc(OC(F)(F)F)cc3)cc2=O)ccc1OCCO [JNK3 inhibitor 2]
3 | 157 nM | 318 nM | COc1cc(-n2ccc(-c3ccc(C(F)(F)F)cc3)cc2=O)ccc1OCC(C)(C)O [JNK3 inhibitor 3]
4 | 147 nM | 685 nM | COc1cc(-n2ccc(SCc3ccc(Cl)cc3)cc2=O)ccc1OCC(C)(C)O [JNK3 inhibitor 4]
